Experimental data published in patent publication US8013011B2, “Treatment and prevention of benign pigmented moles (naevi) using artemisinine and the derivatives thereof” (EPIPHARM GmbH, priority 2005, dated 2011).

Test: Skin tolerability observed during the topical treatments
Type: in vivo, human
Conditions: described topical treatments
Description: A low-risk, non-invasive preventative or therapeutic treatment of acquired nevus cell nevi or of acquired or congenital nevus cell nevi (=birthmarks) with artemisinine and derivatives thereof (dihydroartemisinine, arteether, arthemeter, artesunate semisynthetic derivatives thereof and synthetically analogous compounds) represents enormous progress in the treatment of nevus cell nevi and could drastically reduce the risk of skin cancer. The invention is thus of great significance not only medically but also socioeconomically. […] It is also remarkable that healthy tissue is not damaged and the treatment is painless and simple.

For `C[C@H]1[C@H](OC(=O)CCC(=O)O)O[C@@H]2O[C@@]3(C)CC[C@H]4[C@H](C)CC[C@@H]1[C@@]24OO3` [artesunate], the allergic skin reactions was “No allergic skin reactions”.
